Reference: PMC9325671, “Targeting LIPA independent of its lipase activity is a therapeutic strategy in solid tumors via induction of endoplasmic reticulum stress” (Nature Cancer, 2022)

Target: T1, lysosomal acid lipase (LAL, LIPA) (Homo sapiens, UniProt P38571)
T1 construct: endogenous LAL in SUM-159 cells (CETSA); WT-LIPA reconstituted in LIPA KO cells (pulldown)
T1 sequence (P38571 77-399): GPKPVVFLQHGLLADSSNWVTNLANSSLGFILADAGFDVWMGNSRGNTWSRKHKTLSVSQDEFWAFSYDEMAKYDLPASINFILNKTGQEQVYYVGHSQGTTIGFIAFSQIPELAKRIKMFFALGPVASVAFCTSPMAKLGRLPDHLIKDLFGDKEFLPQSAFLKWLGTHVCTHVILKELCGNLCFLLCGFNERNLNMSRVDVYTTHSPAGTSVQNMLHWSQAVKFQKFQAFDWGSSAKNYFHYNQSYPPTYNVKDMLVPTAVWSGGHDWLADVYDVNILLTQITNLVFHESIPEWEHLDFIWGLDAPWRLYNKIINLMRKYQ
Assay: cellular thermal shift assay ([…] ERX-41) in SUM-159 cells; pulldown from lysates with biotinylated ERX-41
Type: cell-based

## CC(C)COc1cc(C(=O)Nc2ccc(C(=O)N[C@H]3CC[C@H](C)CC3)cc2OCC(C)C)ccc1NC(=O)c1ccc([N+](=O)[O-])c(OCCO)c1 [ERX-41]
  cellular thermal shift assay (10 uM ERX-41) in SUM-159 cells; pulldown from lysa: ERX-41 was able to stabilize LAL within the cell and shifted thermal sensitivity, suggesting that ERX-41 binds to LAL
